Key:
Type in all cases: cell-based
3T3 cells = test: MTT cell proliferation assay, 3T3 cells; details: Mus musculus, NIH3T3; 3T3 fibroblast cells; approximately 64-72 hours incubation
Description: (§1) The MTT cell proliferation assay was used to study the cytotoxic properties of the compounds. The assay was performed according to the method described by Roche Molecular Biochemicals, with minor modifications. The assay is based on the cleavage of the tetrazolium salt, MTT, in the presence of an electron-coupling reagent. The water-insoluble formazan salt produced must be solubilized in an additional step. Cells grown in a 96-well tissue culture plate were incubated with the MTT solution for approximately 4 hours. After this incubation period, a water-insoluble formazan dye formed. After solubilization, the formazan dye was quantitated using a scanning multi-well spectrophotometer (ELISA reader). […] The cells were seeded at 5,000-10,000 cells in each well of 96-well plate in 100 μL of fresh culture medium and were allowed to attach overnight. The stock solutions of the compounds were diluted in 100 μL cell culture medium to obtain eight concentrations of each test compound, ranging from 1 nM to 30 μM. […] All optical densities were measured at 490 nm using a Vmax Kinetic Microplate Reader (Molecular Devices). In most cases, the assay was performed in duplicate and the results were presented as a mean percent inhibition to the negative control±SE. The following formula was used to calculate the percent of inhibition: Inhibition (%)=(1−(ODo/OD))×100.
(§2) The compounds were tested against MS751, Z138 and 3T3 cells. The MS751 cell line is derived from a metastasis to lymph node of human cervix from a patient diagnosed with squameous cell carcinoma of the cervix. The Z138 cell line is a mature B-cell acute lymphoblastic leukemia cell line derived from a patient with chronic lumphocytic leukemia. 3T3 cells are standard fibroblast cells; they were originally isolated from Swiss mouse embryo tissue.

Z138 cells = test: MTT cell proliferation assay, Z138 cells; details: Homo sapiens, Z-138, approximately 64-72 hours incubation
Description: as §1, §2

MS751 cells = test: MTT cell proliferation assay, MS751 cells; details: Homo sapiens; MS751 cervical squamous cell carcinoma cells; approximately 64-72 hours incubation; read-out: MTT Assay IC50 MS-751
Description: as §1, §2

Measured: IC50

Nc1ccc(/C=C/C(=O)NCc2cc3cc(-c4ccc(C(=O)N5CCC(F)(F)CC5)cc4)cc(Oc4ccc(F)cc4)c3o2)cn1 [Compound 100, (E)-3-(6-aminopyridin-3-yl)-N-((5-(4-(4,4-difluoropiperidine-1-carbonyl)phenyl)-7-(4-fluorophenoxy)benzofuran-2-yl)methyl)acrylamide]
100 to 5000 nM: all assays above

Nc1ccc(/C=C/C(=O)NCc2cc3cc(-c4ccc(C(=O)N5CCC(F)(F)CC5)cc4)cc(Oc4cccc(F)c4)c3o2)cn1 [Compound 101, (E)-3-(6-aminopyridin-3-yl)-N-((5-(4-(4,4-difluoropiperidine-1-carbonyl)phenyl)-7-(3-fluorophenoxy)benzofuran-2-yl)methyl)acrylamide]
100 to 5000 nM: all assays above

Nc1ccc(/C=C/C(=O)NCc2cc3cc(-c4ccc(C(=O)N5CCC(F)(F)CC5)cc4F)cc(Oc4cccc(F)c4)c3o2)cn1 [Compound 102, (E)-3-(6-aminopyridin-3-yl)-N-((5-(4-(4,4-difluoropiperidine-1-carbonyl)-2-fluorophenyl)-7-(3-fluorophenoxy)benzofuran-2-yl)methyl)acrylamide]
100 to 5000 nM: all assays above

Nc1ccc(/C=C/C(=O)NCc2cc3cc(-c4ccc(C(=O)N5CCC(F)(F)CC5)cc4F)cc(Oc4ccc(F)cc4)c3o2)cn1 [Compound 103, (E)-3-(6-aminopyridin-3-yl)-N-((5-(4-(4,4-difluoropiperidine-1-carbonyl)-2-fluorophenyl)-7-(4-fluorophenoxy)benzofuran-2-yl)methyl)acrylamide]
100 to 5000 nM: all assays above

Nc1ccc(/C=C/C(=O)NCc2cc3cc(-c4ccc(C(=O)N5CCC(F)(F)CC5)cc4)cc(OC4CCC4)c3o2)cn1 [Compound 104, (E)-3-(6-aminopyridin-3-yl)-N-((7-cyclobutoxy-5-(4-(4,4-difluoropiperidine-1-carbonyl)phenyl)benzofuran-2-yl)methyl)acrylamide]
100 to 5000 nM: all assays above

Nc1ccc(/C=C/C(=O)NCc2cc3cc(-c4ccc(C(=O)N5CCC(F)(F)CC5)cc4F)cc(OC4CCC4)c3o2)cn1 [Compound 105, (E)-3-(6-aminopyridin-3-yl)-N-((7-cyclobutoxy-5-(4-(4,4-difluoropiperidine-1-carbonyl)-2-fluorophenyl)benzofuran-2-yl)methyl)acrylamide]
100 to 5000 nM: all assays above

From patent US20190002448A1, “SUBSTITUTED BENZOFURANYL AND BENZOXAZOLYL COMPOUNDS AND USES THEREOF” (Karyopharm Therapeutics Inc., priority 2015, published 2019)
